The results in this text go back to US20160158317A1, “Antimicrobial Peptide Variants and Polynucleotides Encoding Same” (Adenium Biotech A/S, priority 2010, published 2016).

Where a SMILES comes first, the peptide text is derived from it. Bridges are numbered along the chain shown (N, C = ends).

Usually fraction unbound stands for the share of the substance not bound to proteins or other matrix. A high value points to much free substance.

The nature of the data set: Determination of the protein binding (90% serum, 30 kDa filter, HPLC). In kind it is in vitro ADME. The conditions noted are these: serum. How it is done: Protein binding assays were performed as follows. The purified peptides were mixed with 90% serum and centrifuged through a 30 kDa filter. The ultra-filtrate and the non filtrated serum samples were quantified by HPLC measurements and the protein binding was subsequently calculated.
With `CC(C)[C@@H]1NC(=O)[C@H](CCCNC(=N)N)NC(=O)[C@H](CO)NC(=O)CNC(=O)[C@H](CC(N)=O)NC(=O)[C@H](CCCNC(=N)N)NC(=O)[C@H](Cc2ccc(O)cc2)NC(=O)[C@H](C(C)C)NC(=O)[C@@H]2CSSC[C@H](NC1=O)C(=O)N[C@@H](Cc1ccc(O)cc1)C(=O)N[C@@H](CCCNC(=N)N)C(=O)N[C@@H](CCCNC(=N)N)C(=O)N[C@H](C(=O)N[C@@H](CC(N)=O)C(=O)O)CSSC[C@H](NC(=O)[C@H](Cc1ccccc1)NC(=O)CN)C(=O)N[C@@H](Cc1c[nH]c3ccccc13)C(=O)N[C@@H](Cc1ccc(O)cc1)C(=O)N[C@@H](C(C)C)C(=O)N2` [compound 36] (H-GFCWYVCVYRNGSRVCYRRCN-OH; disulfide 3-20, 7-16 (inferred); N-terminus and C-terminus assumed), the unbound share (fraction unbound) was 0.4.

The compound `CC(C)[C@@H]1NC(=O)CNC(=O)[C@H](CC(N)=O)NC(=O)[C@H](CCCNC(=N)N)NC(=O)[C@H](Cc2ccc(O)cc2)NC(=O)[C@H](C(C)C)NC(=O)[C@@H]2CSSC[C@H](NC(=O)[C@H](Cc3ccccc3)NC(=O)[C@H](CCCNC(=N)N)NC1=O)C(=O)N[C@@H](Cc1c[nH]cn1)C(=O)N[C@@H](CCCNC(=N)N)C(=O)N[C@@H](CCCNC(=N)N)C(=O)N[C@H](C(=O)N[C@@H](CC(N)=O)C(=O)O)CSSC[C@H](NC(=O)[C@H](Cc1ccccc1)NC(=O)CN)C(=O)N[C@@H](Cc1c[nH]c3ccccc13)C(=O)N[C@@H](CC(N)=O)C(=O)N[C@@H](C(C)C)C(=O)N2` [compound 245] (H-GFCWNVCVYRNGVRFCHRRCN-OH; disulfide 3-20, 7-16 (inferred); N-terminus and C-terminus assumed) gave an unbound share (fraction unbound) of 0.15.

Consider `CC(C)[C@@H]1NC(=O)CNC(=O)[C@H](CC(N)=O)NC(=O)[C@H](CCCNC(=N)N)NC(=O)[C@H](Cc2ccc(O)cc2)NC(=O)[C@H](C(C)C)NC(=O)[C@@H]2CSSC[C@H](NC(=O)CNC(=O)[C@H](CCCNC(=N)N)NC1=O)C(=O)N[C@@H](Cc1ccc(O)cc1)C(=O)N[C@@H](CCCNC(=N)N)C(=O)N[C@@H](CCCNC(=N)N)C(=O)N[C@H](C(=O)N[C@@H](CC(N)=O)C(=O)O)CSSC[C@H](NC(=O)[C@H](Cc1ccccc1)NC(=O)CN)C(=O)N[C@@H](Cc1c[nH]c3ccccc13)C(=O)N[C@@H](Cc1ccc(O)cc1)C(=O)N[C@@H](C(C)C)C(=O)N2` [compound 38] (H-GFCWYVCVYRNGVRGCYRRCN-OH; disulfide 3-20, 7-16 (inferred); N-terminus and C-terminus assumed), for which the fraction unbound was 0.07.

`CC(C)[C@@H]1NC(=O)CNC(=O)[C@H](CC(N)=O)NC(=O)[C@H](CCCNC(=N)N)NC(=O)[C@H](CCCNC(=N)N)NC(=O)[C@H](C(C)C)NC(=O)[C@@H]2CSSC[C@H](NC(=O)[C@H](C(C)C)NC(=O)[C@H](CCCNC(=N)N)NC1=O)C(=O)N[C@@H](Cc1ccc(O)cc1)C(=O)N[C@@H](CCCNC(=N)N)C(=O)N[C@@H](CCCNC(=N)N)C(=O)N[C@H](C(=O)N[C@@H](CC(N)=O)C(=O)O)CSSC[C@H](NC(=O)[C@H](Cc1ccccc1)NC(=O)CN)C(=O)N[C@@H](Cc1c[nH]c3ccccc13)C(=O)N[C@@H](Cc1ccc(O)cc1)C(=O)N[C@@H](C(C)C)C(=O)N2` [compound 28] (H-GFCWYVCVRRNGVRVCYRRCN-OH; disulfide 3-20, 7-16 (inferred); N-terminus and C-terminus assumed) showed an unbound share (fraction unbound) of 0.08.

In turn, `CC(C)[C@@H]1NC(=O)[C@H](CC(N)=O)NC(=O)[C@H](Cc2c[nH]c3ccccc23)NC(=O)[C@@H](NC(=O)[C@H](Cc2ccccc2)NC(=O)CN)CSSC[C@@H](C(=O)N[C@@H](CC(N)=O)C(=O)O)NC(=O)[C@H](CCCNC(=N)N)NC(=O)[C@H](CCCNC(=N)N)NC(=O)[C@H](Cc2ccc(O)cc2)NC(=O)[C@@H]2CSSC[C@H](NC1=O)C(=O)N[C@@H](C)C(=O)N[C@@H](Cc1ccc(O)cc1)C(=O)N[C@@H](CCCNC(=N)N)C(=O)N[C@@H](CC(N)=O)C(=O)NCC(=O)N[C@@H](CCCCN)C(=O)N[C@@H](CCCNC(=N)N)C(=O)N[C@@H](C)C(=O)N2` [compound 411] (H-GFCWNVCAYRNGKRACYRRCN-OH; disulfide 3-20, 7-16 (inferred); N-terminus and C-terminus assumed) gave a free fraction (fraction unbound) of 0.14.

The compound `CC(C)[C@@H]1NC(=O)CNC(=O)[C@H](CC(N)=O)NC(=O)[C@H](CCCNC(=N)N)NC(=O)[C@H](Cc2ccc(O)cc2)NC(=O)[C@H](Cc2ccc(O)cc2)NC(=O)[C@@H]2CSSC[C@H](NC(=O)[C@H](C(C)C)NC(=O)[C@H](CCCNC(=N)N)NC1=O)C(=O)N[C@@H](Cc1ccc(O)cc1)C(=O)N[C@@H](CCCNC(=N)N)C(=O)N[C@@H](CCCNC(=N)N)C(=O)N[C@H](C(=O)N[C@@H](CC(N)=O)C(=O)O)CSSC[C@H](NC(=O)[C@H](Cc1ccccc1)NC(=O)CN)C(=O)N[C@@H](Cc1c[nH]c3ccccc13)C(=O)N[C@@H](Cc1ccc(O)cc1)C(=O)N[C@@H](C(C)C)C(=O)N2` [compound 25] (H-GFCWYVCYYRNGVRVCYRRCN-OH; disulfide 3-20, 7-16 (inferred); N-terminus and C-terminus assumed) had a fraction unbound of 0.02.

`CC(C)[C@@H]1NC(=O)CNC(=O)[C@H](CC(N)=O)NC(=O)[C@H](CCCNC(=N)N)NC(=O)[C@H](Cc2ccc(O)cc2)NC(=O)[C@H](C(C)C)NC(=O)[C@@H]2CSSC[C@H](NC(=O)[C@H](CO)NC(=O)[C@H](CCCNC(=N)N)NC1=O)C(=O)N[C@@H](Cc1ccc(O)cc1)C(=O)N[C@@H](CCCNC(=N)N)C(=O)N[C@@H](CCCNC(=N)N)C(=O)N[C@H](C(=O)N[C@@H](CC(N)=O)C(=O)O)CSSC[C@H](NC(=O)[C@H](Cc1ccccc1)NC(=O)CN)C(=O)N[C@@H](C)C(=O)N[C@@H](CCCCN)C(=O)N[C@@H](C(C)C)C(=O)N2` [compound 120] (H-GFCAKVCVYRNGVRSCYRRCN-OH; disulfide 3-20, 7-16 (inferred); N-terminus and C-terminus assumed) showed a fraction unbound of 0.31.

In turn, `CC(C)[C@@H]1NC(=O)CNC(=O)[C@H](Cc2c[nH]cn2)NC(=O)[C@H](CCCNC(=N)N)NC(=O)[C@H](Cc2ccc(O)cc2)NC(=O)[C@H](C(C)C)NC(=O)[C@@H]2CSSC[C@H](NC(=O)[C@H](C(C)C)NC(=O)[C@H](CCCNC(=N)N)NC1=O)C(=O)N[C@@H](Cc1c[nH]cn1)C(=O)N[C@@H](CCCNC(=N)N)C(=O)N[C@@H](CCCNC(=N)N)C(=O)N[C@H](C(=O)N[C@@H](CC(N)=O)C(=O)O)CSSC[C@H](NC(=O)[C@H](Cc1ccccc1)NC(=O)CN)C(=O)N[C@@H](Cc1c[nH]c3ccccc13)C(=O)N[C@@H](CC(N)=O)C(=O)N[C@@H](C(C)C)C(=O)N2` [compound 232] (H-GFCWNVCVYRHGVRVCHRRCN-OH; disulfide 3-20, 7-16 (inferred); N-terminus and C-terminus assumed) showed a fraction unbound of 0.15.

For `CC(C)[C@@H]1NC(=O)CNC(=O)[C@H](CC(N)=O)NC(=O)[C@H](CCCNC(=N)N)NC(=O)[C@H](Cc2ccc(O)cc2)NC(=O)[C@H](C(C)C)NC(=O)[C@@H]2CSSC[C@H](NC(=O)[C@H](CC(N)=O)NC(=O)[C@H](CCCNC(=N)N)NC1=O)C(=O)N[C@@H](Cc1ccc(O)cc1)C(=O)N[C@@H](CCCNC(=N)N)C(=O)N[C@@H](CCCNC(=N)N)C(=O)N[C@H](C(=O)N[C@@H](CC(N)=O)C(=O)O)CSSC[C@H](NC(=O)[C@H](Cc1ccccc1)NC(=O)CN)C(=O)N[C@@H](Cc1c[nH]c3ccccc13)C(=O)N[C@@H](Cc1ccc(O)cc1)C(=O)N[C@@H](C(C)C)C(=O)N2` [compound 41] (H-GFCWYVCVYRNGVRNCYRRCN-OH; disulfide 3-20, 7-16 (inferred); N-terminus and C-terminus assumed), the unbound share (fraction unbound) was 0.03.

The compound `CC(C)[C@@H]1NC(=O)CNC(=O)[C@H](CC(N)=O)NC(=O)[C@H](CCCNC(=N)N)NC(=O)[C@H](Cc2ccc(O)cc2)NC(=O)[C@H](C(C)C)NC(=O)[C@@H]2CSSC[C@H](NC(=O)[C@H](CCCNC(=N)N)NC(=O)[C@H](CCCNC(=N)N)NC1=O)C(=O)N[C@@H](Cc1c[nH]cn1)C(=O)N[C@@H](CCCNC(=N)N)C(=O)N[C@@H](CCCNC(=N)N)C(=O)N[C@H](C(=O)N[C@@H](CC(N)=O)C(=O)O)CSSC[C@H](NC(=O)[C@H](Cc1ccccc1)NC(=O)CN)C(=O)N[C@@H](Cc1c[nH]c3ccccc13)C(=O)N[C@@H](CC(N)=O)C(=O)N[C@@H](C(C)C)C(=O)N2` [compound 252] (H-GFCWNVCVYRNGVRRCHRRCN-OH; disulfide 3-20, 7-16 (inferred); N-terminus and C-terminus assumed) showed an unbound share (fraction unbound) of 0.24.

The compound `CC(C)[C@@H]1NC(=O)CNC(=O)[C@H](CC(N)=O)NC(=O)[C@H](CCCNC(=N)N)NC(=O)[C@H](Cc2ccc(O)cc2)NC(=O)[C@H](C(C)C)NC(=O)[C@@H]2CSSC[C@H](NC(=O)CNC(=O)[C@H](CCCNC(=N)N)NC1=O)C(=O)N[C@@H](Cc1c[nH]cn1)C(=O)N[C@@H](CCCNC(=N)N)C(=O)N[C@@H](CCCNC(=N)N)C(=O)N[C@H](C(=O)N[C@@H](CC(N)=O)C(=O)O)CSSC[C@H](NC(=O)[C@H](Cc1ccccc1)NC(=O)CN)C(=O)N[C@@H](Cc1c[nH]c3ccccc13)C(=O)N[C@@H](CC(N)=O)C(=O)N[C@@H](C(C)C)C(=O)N2` [compound 246] (H-GFCWNVCVYRNGVRGCHRRCN-OH; disulfide 3-20, 7-16 (inferred); N-terminus and C-terminus assumed) had a fraction unbound of 0.21.

As to `CC(C)[C@@H]1NC(=O)[C@@H]2CSSC[C@H](NC(=O)[C@H](CCCCN)NC(=O)[C@H](CCCNC(=N)N)NC(=O)[C@H](C)NC(=O)CNC(=O)[C@H](CC(N)=O)NC(=O)[C@H](CCCNC(=N)N)NC(=O)[C@H](Cc3ccc(O)cc3)NC1=O)C(=O)N[C@@H](Cc1ccc(O)cc1)C(=O)N[C@@H](CCCNC(=N)N)C(=O)N[C@@H](CCCNC(=N)N)C(=O)N[C@H](C(=O)N[C@@H](CC(N)=O)C(=O)O)CSSC[C@H](NC(=O)[C@H](Cc1ccccc1)NC(=O)CN)C(=O)N[C@@H](Cc1c[nH]c3ccccc13)C(=O)N[C@@H](CCCNC(=N)N)C(=O)N[C@@H](C(C)C)C(=O)N2` [compound 313] (H-GFCWRVCVYRNGARKCYRRCN-OH; disulfide 3-20, 7-16 (inferred); N-terminus and C-terminus assumed), the unbound share (fraction unbound) is 0.02.
